Experimental data: US4087432A, “1H-imidazo(4,5-b)pyridine compounds” (Eli Lilly and Company, priority 1975, dated 1978)

What was measured:
[1] = test system: Cotton; assay: Preemergent injury rating, cotton; assay type: in vivo; design: key: injury rating scale on which 4 = death
Description: (§1) Various of the compounds to be employed as active agent in accordance with the present invention were evaluated for preemergent application to various species of plants. In this evaluation, a soil was prepared consisting of one part masonry sand and one part shredded top soil blended together in a cement mixer. One gallon of this soil was placed in a 25 × 35 cm. galvanized flat and was patted down with a bench brush until level. A three-row marker was used to make 21/2 cm. deep furrows in approximately two-fifths of the flat. Crop seeds consisting of four kernels of corn, five cotton seeds and five soybean seeds were placed in these furrows. A four-row template was then placed on the remaining soil and the indicated approximate numbers of each of the following seeds were planted, one species to each section: foxtail (millet), 80-100 seeds; velvetleaf (40-50 seeds); rough pigweed (150-250 seeds); and large crabgrass (100-150 seeds).
(§2) Sufficient soil was added to cover the entire flat. Thus, the weed seeds were covered to a depth of about 6 mm. and the crop seeds were covered to a depth of about 3 cm.
(§3) In assaying the effect of the composition as preemergent herbicides, a flat prepared as above, taken either on the day of planting or on the next day, was placed in a chamber equipped with a turntable and an air exhaust. The herbicidal composition, either a spray-type emulsion or a wettable powder, was applied to the flat with a modified DeVilbiss atomizer hooked to an air source. Twelve and one-half milliliters of the composition under test were applied to each flat either on the day of planting or the succeeding day. Injury ratings and observations as to type of injury were made eleven to twelve days after treatment. The injury rating scale used was as follows:
(§4) 4--death When more than one determination was carried out at a given rate, an average value was calculated for the injury rating. Each compound evaluated was formulated as a spray by one of the following procedures. In one method the particular compound was wetted by grinding in a mortar with one part of polyoxyethylene sorbitan monolaurate. Five hundred parts of water were added slowly to the resultant creamy paste to give an aqueous dispersion with a surfactant concentration of 0.2 percent. This dispersion was entirely satisfactory for spray application. In a second procedure the compound was dissolved in one volume of acetone, and the acetone solution was diluted with nineteen volumes of water containing 0.1 percent of polyoxyethylene sorbitan monolaurate.
(§5) In the following table setting forth the results of the evaluation, column 1 gives the name of the compound under test; column 2, the rate in pounds per acre at which the compound was applied to the test flat; and the remaining columns, the injury to the particular plant seeds or seedlings as measured by the foregoing scale.

[2] = test system: Velvet Leaf; assay: Preemergent injury rating, velvetleaf; assay type: in vivo; design: key: injury rating scale on which 4 = death
Description: as §1, §2, §3, §4, §5

[3] = test system: Crabgrass; assay: Preemergent injury rating, crabgrass; assay type: in vivo, large crabgrass; design: key: injury rating scale on which 4 = death
Description: as §1, §2, §3, §4, §5

[4] = test system: Soybean; assay: Preemergent injury rating, soybean; assay type: in vivo; design: key: injury rating scale on which 4 = death
Description: as §1, §2, §3, §4, §5

[5] = test system: Pigweed; assay: Preemergent injury rating, pigweed; assay type: in vivo, rough pigweed; design: key: injury rating scale on which 4 = death
Description: as §1, §2, §3, §4, §5

[6] = test system: Corn; assay: Preemergent injury rating, corn; assay type: in vivo; design: key: injury rating scale on which 4 = death
Description: as §1, §2, §3, §4, §5

[7] = test system: Foxtail; assay: Preemergent injury rating, foxtail; assay type: in vivo, foxtail (millet); design: key: injury rating scale on which 4 = death
Description: as §1, §2, §3, §4, §5

[8] = test system: Foxtail; assay: Postemergent injury rating, foxtail; assay type: in vivo, foxtail (millet); design: key: injury rating scale, 4 = death
Description: as §1, §2, §3, §4
(§6) Representative compounds of the present invention were evaluated for postemergent application to plants including corn and several weed species. The evaluation was carried out in accordance with the procedures of Examples 49-52 except that the test solutions were applied about 9-12 days after the preparation and seeding of the flats.

[9] = test system: Crabgrass; assay: Postemergent injury rating, crabgrass; assay type: in vivo, large crabgrass; design: key: injury rating scale, 4 = death
Description: as §1, §2, §3, §4, §6

[10] = test system: Corn; assay: Postemergent injury rating, corn; assay type: in vivo; design: key: injury rating scale, 4 = death
Description: as §1, §2, §3, §4, §6

[11] = test system: Pigweed; assay: Postemergent injury rating, pigweed; assay type: in vivo, rough pigweed; design: key: injury rating scale, 4 = death
Description: as §1, §2, §3, §4, §6

## On1c(C(F)(F)C(F)F)nc2nc(Cl)c(Cl)cc21 [1-hydroxy-5,6-dichloro-2-(1,1,2,2-tetrafluoroethyl)-1H-imidazo(4,5-b)pyridine]
[1]; 1 lbs/acre
  Injury Rating, Cotton: 0
[1]; 2 lbs/acre
  Injury Rating, Cotton: 0
[1]; 4 lbs/acre
  Injury Rating, Cotton: 0
[2]; 1 lbs/acre
  Injury Rating, Velvet Leaf: 0
[2]; 2 lbs/acre
  Injury Rating, Velvet Leaf: 1B
[2]; 4 lbs/acre
  Injury Rating, Velvet Leaf: 1B
[2]; 8 lbs/acre
  Injury Rating, Velvet Leaf: 3B
[3]; 1 lbs/acre
  Injury Rating, Crabgrass: 0
[3]; 2 lbs/acre
  Injury Rating, Crabgrass: 1BS
[3]; 4 lbs/acre
  Injury Rating, Crabgrass: 2BS
[3]; 8 lbs/acre
  Injury Rating, Crabgrass: 2B
[4]; 1 lbs/acre
  Injury Rating, Soybean: 0
[4]; 2 lbs/acre
  Injury Rating, Soybean: 0
[4]; 4 lbs/acre
  Injury Rating, Soybean: 1B
[5]; 1 lbs/acre
  Injury Rating, Pigweed: 1S
[5]; 2 lbs/acre
  Injury Rating, Pigweed: 3BS
[5]; 4 lbs/acre
  Injury Rating, Pigweed: 3BS
[5]; 8 lbs/acre
  Injury Rating, Pigweed: 3BS
[6]; 1 lbs/acre
  Injury Rating, Corn: 0
[6]; 2 lbs/acre
  Injury Rating, Corn: 0
[6]; 4 lbs/acre
  Injury Rating, Corn: 0
[6]; 8 lbs/acre
  Injury Rating, Corn: 0
[7]; 1 lbs/acre
  Injury Rating, Foxtail: 0
[7]; 2 lbs/acre
  Injury Rating, Foxtail: 0
[7]; 4 lbs/acre
  Injury Rating, Foxtail: 1BS
[7]; 8 lbs/acre
  Injury Rating, Foxtail: 1S

## On1c(C(F)(F)F)nc2nc(Cl)ccc21 [5-chloro-1-hydroxy-2-(trifluoromethyl)-1H-imidazo(4,5-b)pyridine]
[1]; 2 lbs/acre
  Injury Rating, Cotton: 0
[3]; 2 lbs/acre
  Injury Rating, Crabgrass: 3
[3]; 8 lbs/acre
  Injury Rating, Crabgrass: 3
[4]; 2 lbs/acre
  Injury Rating, Soybean: 0
[5]; 2 lbs/acre
  Injury Rating, Pigweed: 3
[5]; 8 lbs/acre
  Injury Rating, Pigweed: 3
[6]; 2 lbs/acre
  Injury Rating, Corn: 0
[6]; 8 lbs/acre
  Injury Rating, Corn: 1
[7]; 2 lbs/acre
  Injury Rating, Foxtail: 2
[7]; 8 lbs/acre
  Injury Rating, Foxtail: 4

## On1c(C(F)(F)F)nc2nccc(Cl)c21 [7-chloro-1-hydroxy-2-(trifluoromethyl)-1H-imidazo(4,5-b)pyridine]
[8]; 4 lbs/acre
  Injury Rating, Foxtail: 1
[8]; 8 lbs/acre
  Injury Rating, Foxtail: 3
[9]; 4 lbs/acre
  Injury Rating, Crabgrass: 1
[9]; 8 lbs/acre
  Injury Rating, Crabgrass: 2
[10]; 4 lbs/acre
  Injury Rating, Corn: 0
[10]; 8 lbs/acre
  Injury Rating, Corn: 1
[11]; 4 lbs/acre
  Injury Rating, Pigweed: 3
[11]; 8 lbs/acre
  Injury Rating, Pigweed: 3
